From patent publication US10947215B2, “Heteroaryl compounds and their use as therapeutic drugs” (Dong-A Socio Holdings Co., Ltd., priority 2015, dated 2021)

These compounds were tested on Ba/F3-CDM cells (Ba/F3 transfected with CD8-MerTK) (assay: In cell MER kinase assay, Ba/F3-CDM cell proliferation without IL-3 (Celltiter-Glo, GI50)). Details: 48 hours, read-out: Cell growth inhibition (GI50).
Assay type: cell-based, murine
Description: In Cell MER Kinase Assay Using BaF3 Cellular System
To establish an in cell kinase assay for MerTK kinase, the IL-3 dependent Ba/F3 cells of murine lymphoid origin was transfected with CD8-MerTK. […] For a routine cellular assay, Ba/F3-CDM cells were seeded at 2,000 cells per well in 384-well cell culture plate containing DMEM/10% FBS culture media and incubated for 24 hours before addition of compounds pre-diluted in culture media. Following compound treatment, cells were further incubated for 48 hours and the proliferation was measured. To discriminate a Ba/F3 growth inhibition by a specific inhibition of MerTK kinase following compound treatment vs growth inhibition due to a non-specific unintended cytotoxicity of compounds, we routinely carried out control sets of Ba/F3 cells in parallel that grown in IL3-supplemented growth media. In the presence of IL-3, the proliferation of Ba/F3 is no longer dependent on the MerTK activity. Cell growth and proliferation was measured with Celltiter-Glo™ system (Promega, USA) according to the manufacturer's instruction. The half-maximal growth inhibitory concentration (GI50) value was calculated with Prism6.0 software (GraphPad, USA).

Row | SMILES | GI50 [µM]
1 | C[C@H](c1ccc(-c2ccc(CO[C@H]3CCC[C@@H]3NC(=O)c3cc(-c4ccc(F)nc4)cnc3N)cc2)cc1)N1CCN(CCO)CC1 [Example 227, 6-amino-6′-fluoro-N-((1S,2S)-2-((4′-((R)-1-(4-(2-hydroxyethyl)-piperazin-1-yl)ethyl)-[1,1′-biphenyl]-4-yl)methoxy)cyclopentyl)-[3,3′-bipyridine]-5-carboxamide] | < 0.1
2 | CC(c1ccc(-c2ccc(CO[C@H]3CCC[C@@H]3NC(=O)c3cc(-c4cncc(F)c4)cnc3N)cc2)cc1)N1CCN(C)CC1 (stereo partly drawn) [Example 230, 6-amino-5′-fluoro-N-((1S,2S)-2-((4′-(1-(4-methylpiperazin-1-yl)ethyl)-[1,1′-biphenyl]-4-yl)methoxy)cyclopentyl)-[3,3′-bipyridine]-5-carboxamide] | < 0.1
3 | CC(c1ccc(-c2ccc(CO[C@H]3CCC[C@@H]3NC(=O)c3cc(-c4cncc(F)c4)cnc3N)cc2)cc1)N1CCN(CCO)CC1 (stereo partly drawn) [Example 236, 6-amino-5′-fluoro-N-((1S,2S)-2-((4′-(1-(4-(2-hydroxyethyl)-piperazin-1-yl)ethyl)-[1,1′-biphenyl]-4-yl)methoxy)cyclopentyl)-[3,3′-bipyridine]-5-carboxamide] | < 0.1
4 | CC(c1ccc(-c2ccc(CO[C@H]3CCC[C@@H]3NC(=O)c3cc(-c4ccc(F)nc4)cnc3N)cc2)cc1)N1CCN(CCO)CC1 (stereo partly drawn) [Example 237, 6-amino-6′-fluoro-N-((1S,2S)-2-((4′-(1-(4-(2-hydroxyethyl)-piperazin-1-yl)ethyl)-[1,1′-biphenyl]-4-yl)methoxy)cyclopentyl)-[3,3′-bipyridine]-5-carboxamide] | < 0.1
5 | CC(c1ccc(-c2ccc(CO[C@H]3CCC[C@@H]3NC(=O)c3cc(-c4cccnc4F)cnc3N)cc2)cc1)N1CCN(CCO)CC1 (stereo partly drawn) [Example 238, 6-amino-2′-fluoro-N-((1S,2S)-2-((4′-(1-(4-(2-hydroxyethyl)-piperazin-1-yl)ethyl)-[1,1′-biphenyl]-4-yl)methoxy)cyclopentyl)-[3,3′-bipyridine]-5-carboxamide] | < 0.1
6 | CN1CCC(Cc2ccc(-c3ccc(CO[C@H]4CCC[C@@H]4NC(=O)c4cc(-c5cnn(C)c5)cnc4N)cc3)cc2)CC1 [Example 239, 2-amino-5-(1-methyl-1H-pyrazol-4-yl)-N-((1S,2S)-2-((4′-((1-methylpiperidin-4-yl)methyl)-[1,1′-biphenyl]-4-yl)methoxy)cyclopentyl)nicotinamide] | < 0.1
7 | Cn1cc(-c2cnc(N)c(C(=O)N[C@H]3CCC[C@@H]3OCc3ccc(-c4ccc(CC5CCN(CCO)CC5)cc4)cc3)c2)cn1 [Example 240, 2-amino-N-((1S,2S)-2-((4′-((1-(2-hydroxyethyl)piperidin-4-yl)-methyl)-[1,1′-biphenyl]-4-yl)methoxy)cyclopentyl)-5-(1-methyl-1H-pyrazol-4-yl)-nicotinamide] | < 0.1
8 | Cn1cc(-c2cnc(N)c(C(=O)N[C@H]3CCC[C@@H]3OCc3ccc(-c4ccc(CC5CCN(CC(N)=O)CC5)cc4)cc3)c2)cn1 [Example 242, 2-amino-N-((1S,2S)-2-((4′-((1-(2-amino-2-oxoethyl)piperidin-4-yl)methyl)-[1,1′-biphenyl]-4-yl)methoxy)cyclopentyl)-5-(1-methyl-1H-pyrazol-4-yl)-nicotinamide] | < 0.1
9 | CN(C)CCOc1ccc(-c2ccc(CO[C@H]3CCC[C@@H]3NC(=O)c3cc(-c4cnn(C)c4)cnc3N)cc2)cc1 [Example 245, 2-amino-N-((1S,2S)-2-((4′-(2-(dimethylamino)ethoxy)-[1,1′-biphenyl]-4-yl)methoxy)cyclopentyl)-5-(1-methyl-1H-pyrazol-4-yl)nicotinamide] | 0.5 to 1
10 | Cn1cc(-c2cnc(N)c(C(=O)N[C@H]3CCC[C@@H]3OCc3ccc(C#CCCO)cc3)c2)cn1 [Example 249, 2-amino-N-((1S,2S)-2-((4-(4-hydroxybut-1-yn-1-yl)benzyl)oxy)-cyclopentyl)-5-(1-methyl-1H-pyrazol-4-yl)nicotinamide] | > 1
11 | Cn1cc(-c2cnc(N)c(C(=O)N[C@H]3CCC[C@@H]3OCc3ccc(C#CCCCCO)cc3)c2)cn1 [Example 251, 2-amino-N-((1S,2S)-2-((4-(6-hydroxyhex-1-yn-1-yl)benzyl)oxy)-cyclopentyl)-5-(1-methyl-1H-pyrazol-4-yl)nicotinamide] | > 1
12 | Cc1ccc(CO[C@H]2CCC[C@@H]2NC(=O)c2cc(-c3ccc(CN4CCC(N5CCCC5)CC4)c(F)c3)cnc2N)cc1C [Example 325, 2-amino-N-((1S,2S)-2-((3,4-dimethylbenzyl)oxy)cyclopentyl)-5-(3-fluoro-4-((4-(pyrrolidin-1-yl)piperidin-1-yl)methyl)phenyl)nicotinamide] | > 1
13 | CCc1cc(CO[C@H]2CCC[C@@H]2NC(=O)c2cc(-c3ccc(C(C)(C)N4CCN(CCO)CC4)cc3)cnc2N)ccc1C [Example 360, 2-amino-N-((1S,2S)-2-((3-ethyl-4-methylbenzyl)oxy)cyclopentyl)-5-(4-(2-(4-(2-hydroxyethyl)piperazin-1-yl)propan-2-yl)phenyl)nicotinamide] | > 1

Further lines, results first:

Row | GI50 [µM] | SMILES
14 | < 0.1 | CN1CCN(Cc2ccc(-c3ccc(CO[C@H]4CCC[C@@H]4NC(=O)c4cc(-c5ccc(F)c(F)c5)cnc4N)cc3)cc2)CC1 [Example 364]
15 | < 0.1 | CN1CCC(n2cc(-c3cnc(N)c(C(=O)N[C@H]4CCC[C@@H]4OCc4ccc(-c5ccc(CN6CCN(C)CC6)cc5)cc4)c3)cn2)CC1 [Example 366, 2-amino-N-((1S,2S)-2-((4′-((4-methylpiperazin-1-yl)methyl)-[1,1′-biphenyl]-4-yl)methox)cyclopentyl)-5-(1-(1-methylpiperidin-4-yl)-1H-pyrazol-4-yl)nicotinamide]
16 | < 0.1 | CN1CCN(Cc2ccc(-c3ccc(CO[C@H]4CCC[C@@H]4NC(=O)c4cc(-c5ccc(N6CCN(C)CC6)cc5)cnc4N)cc3)cc2)CC1 [Example 367, 2-amino-N-((1S,2S)-2-((4′-((4-methylpiperazin-1-yl)methyl)-[1,1′-biphenyl]-4-yl)methoxy)cyclopentyl)-5-(4-(4-methylpiperazin-1-yl)phenyl)-nicotinamide]
17 | < 0.1 | CN1CCN(Cc2ccc(-c3ccc(CO[C@H]4CCC[C@@H]4NC(=O)c4cc(-c5ccc(CN6CCN(C)CC6)cc5)cnc4N)cc3)cc2)CC1 [Example 368, 2-amino-N-((1S,2S)-2-((4′-((4-methylpiperazin-1-yl)methyl)-[1,1′-biphenyl]-4-yl)methoxy)cyclopentyl)-5-(4-((4-methylpiperazin-1-yl)methyl)phenyl)nicotinamide]
18 | < 0.1 | CN1CCN(Cc2ccc(-c3ccc(CO[C@H]4CCC[C@@H]4NC(=O)c4cc(-c5ccc(CO)cc5)cnc4N)cc3)cc2)CC1 [Example 369, 2-amino-5-(4-(hydroxymethyl)phenyl)-N-((1S,2S)-2-((4′-((4-methylpiperazin-1-yl)methyl)-[1,1′-biphenyl]-4-yl)methoxy)cyclopentyl)nicotinamide]
19 | < 0.1 | Cc1cccc(-c2cnc(N)c(C(=O)N[C@H]3CCC[C@@H]3OCc3ccc(-c4ccc(CN5CCN(C)CC5)cc4)cc3)c2)c1 [Example 370, 2-amino-N-((1S,2S)-2-((4′-((4-methylpiperazin-1-yl)methyl)-[1,1′-biphenyl]-4-yl)methoxy)cyclopentyl)-5-(m-tolyl)nicotinamide]
20 | < 0.1 | CN1CCN(Cc2ccc(-c3ccc(CO[C@H]4CCC[C@@H]4NC(=O)c4cc(-c5ccccc5)cnc4N)cc3)cc2)CC1 [Example 371, 2-amino-N-((1S,2S)-2-((4′-((4-methylpiperazin-1-yl)methyl)-[1,1′-biphenyl]-4-yl)methoxy)cyclopentyl)-5-phenyl nicotinamide]
21 | < 0.1 | CN1CCN(Cc2ccc(-c3ccc(CO[C@H]4CCC[C@@H]4NC(=O)c4cc(-c5ccc(O)cc5)cnc4N)cc3)cc2)CC1 [Example 372, 2-amino-5-(4-hydroxyphenyl)-N-((1S,2S)-2-((4′-((4-methyl-piperazin-1-yl)methyl)-[1,1′-biphenyl]-4-yl)methoxy)cyclopentyl)nicotinamide]
22 | < 0.1 | CN1CCN(Cc2ccc(-c3ccc(CO[C@H]4CCC[C@@H]4NC(=O)c4cc(-c5cccnc5)cnc4N)cc3)cc2)CC1 [Example 375, 6-amino-N-((1S,2S)-2-((4′-((4-methylpiperazin-1-yl)methyl)-[1,1′-biphenyl]-4-yl)methoxy)cyclopentyl)-[3,3′-bipyridine]-5-carboxamide]
23 | < 0.1 | COc1ccc(-c2cnc(N)c(C(=O)N[C@H]3CCC[C@@H]3OCc3ccc(-c4ccc(CN5CCN(C)CC5)cc4)cc3)c2)cc1 [Example 376, 2-amino-5-(4-methoxyphenyl)-N-((1S,2S)-2-((4′-((4-methyl-piperazin-1-yl)methyl)-[1,1′-biphenyl]-4-yl)methoxy)cyclopentyl)nicotinamide]
24 | < 0.1 | CN1CCN(Cc2ccc(-c3ccc(CO[C@H]4CCC[C@@H]4NC(=O)c4cc(-c5ccncc5)cnc4N)cc3)cc2)CC1 [Example 377, 6-amino-N-((1S,2S)-2-((4′-((4-methylpiperazin-1-yl)methyl)-[1,1′-biphenyl]-4-yl)methoxy)cyclopentyl)-[3,4′-bipyridine]-5-carboxamide]
25 | < 0.1 | CC1CCN(Cc2ccc(-c3cnc(N)c(C(=O)N[C@H]4CCC[C@@H]4OCc4ccc(-c5ccc(CN6CCN(C)CC6)cc5)cc4)c3)cc2)CC1 [Example 378, 2-amino-N-((1S,2S)-2-((4′-((4-methylpiperazin-1-yl)methyl)-[1,1′-biphenyl]-4-yl)methoxy)cyclopentyl)-5-(4-((4-methylpiperidin-1-yl)methyl)phenyl)-nicotinamide]
